The values below come from patent publication US12252524B2, “GIP/GLP1 co-agonist compounds” (Eli Lilly and Company, priority 2018, dated 2025).

Assay [1] concerns the target T1, human Gcg receptor (Homo sapiens, UniProt P47871).
T1 construct: expressed in transfected cells; crude membranes
Nature of the assay: [125I]-Glucagon binding (SPA), human Gcg receptor. To be noted: read-out: hGLcgR Ki, nM (SEM, n). The method, boiled down: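 Scintillation counts are taken after membranes and WGA beads incubate and settle for 12 hours at room temperature. Buffer is 25 mM HEPES, pH 7.4, with CaCl2, MgCl2, bacitracin and Tween-20. Ki values, from four-parameter IC50 fits, are geometric means over independent days.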

For assay [2], the target named is T2, human GIP receptor (Homo sapiens, UniProt P48546).
T2 construct: expressed in transfected cells; crude membranes
T2 sequence (P48546 22-466): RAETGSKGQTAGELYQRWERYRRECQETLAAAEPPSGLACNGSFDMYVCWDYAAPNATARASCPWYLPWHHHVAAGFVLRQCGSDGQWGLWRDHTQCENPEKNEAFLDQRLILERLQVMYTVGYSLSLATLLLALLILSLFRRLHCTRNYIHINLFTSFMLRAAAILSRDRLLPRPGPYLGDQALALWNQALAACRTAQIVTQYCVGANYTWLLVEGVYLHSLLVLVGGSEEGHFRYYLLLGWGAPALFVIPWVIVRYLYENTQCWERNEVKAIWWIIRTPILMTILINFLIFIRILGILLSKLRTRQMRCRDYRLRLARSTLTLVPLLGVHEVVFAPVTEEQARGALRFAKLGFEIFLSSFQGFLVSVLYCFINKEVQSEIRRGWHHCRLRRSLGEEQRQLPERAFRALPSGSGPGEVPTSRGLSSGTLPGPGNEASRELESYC
Nature of the assay: [125I]-GIP binding (SPA), human GIP receptor. To be noted: read-out: hGIPR Ki, nM (SEM, n).

Assay [3] has as its target human GLP-1 receptor (GLP-1R) (Homo sapiens, UniProt P43220). Nature of the assay: cAMP pharmacological functional assay in presence of casein, hGLP-1R. In kind it is cell-based. The settings on record: HEK293 cells expressing hGLP-1R, 0.1% Casein, geometric mean; read-out: hGLP1R cAMP Rel EC50 nM (SEM, n).
Assay [4] concerns the target T3, gastric inhibitory peptide receptor (GIPR) (Homo sapiens, UniProt P48546).
T3 sequence (P48546 22-466): T2 sequence (P48546 22-466)
Nature of the assay: cAMP pharmacological functional assay in presence of casein, hGIPR. In kind it is cell-based. The settings on record: HEK293 cells expressing hGIPR, 0.1% Casein, geometric mean; read-out: hGIPR cAMP Rel EC50 nM (SEM, n).

The target of assay [5] is human GLP-1R (Homo sapiens, UniProt P43220). Nature of the assay: [125I]-GLP-1 binding (SPA), human GLP-1 receptor. The arrangement: expressed in transfected cells; crude membranes. To be noted: read-out: hGLP1R Ki, (nM) (SEM, n). Summed up:
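Membranes: hypotonic lysis (50 mM Tris HCl, pH 7.5, protease inhibitors), Potter-Elvehjem homogenization, high-speed pellet (35000×g 1 h or 25000×g 30 min, 4° C.). Buffer: 25 mM HEPES pH 7.4, 2.5 mM CaCl2, 1 mM MgCl2. Four-parameter IC50 fit; Ki as geometric mean ± SEM.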

What is called Ki is a measure of affinity in units of concentration, obtained from inhibition or displacement. As a reminder, the EC50 is the midpoint of the concentration-response curve.

Each structure is given as a SMILES string. Numbered stars: 1 amine (or outer) side, 2 acyl side, 3 side chain; on linkers, the order of the positions; unused ones are H or OH. Square brackets hold non-standard residues; d marks the D form. Side chains are listed from the residue outwards. Peptide text beside a SMILES is read from it. * marks the point of attachment. C20 diacid = O=C(O)CCCCCCCCCCCCCCCCCCC(=O)*; γGlu = O=C(O)[C@H](CCC(=O)[*:2])N[*:1]; AEEA = NCCOCCOCC(=O)O; Aib = CC(C)(N)C(=O)O

T1 sequence (P47871 26-477): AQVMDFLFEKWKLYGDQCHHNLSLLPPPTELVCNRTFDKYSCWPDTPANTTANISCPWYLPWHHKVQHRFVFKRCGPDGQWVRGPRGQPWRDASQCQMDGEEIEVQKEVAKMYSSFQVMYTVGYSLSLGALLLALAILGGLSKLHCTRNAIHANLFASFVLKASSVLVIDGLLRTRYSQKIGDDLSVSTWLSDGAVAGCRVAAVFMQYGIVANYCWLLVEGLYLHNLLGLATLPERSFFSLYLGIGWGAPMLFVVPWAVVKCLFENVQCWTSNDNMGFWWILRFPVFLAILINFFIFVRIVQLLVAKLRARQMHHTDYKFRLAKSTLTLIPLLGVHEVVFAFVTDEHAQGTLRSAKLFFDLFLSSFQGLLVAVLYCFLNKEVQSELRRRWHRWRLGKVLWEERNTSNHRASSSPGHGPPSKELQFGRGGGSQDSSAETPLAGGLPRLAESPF
Sequence of human GLP-1 receptor (GLP-1R) (P43220 24-463): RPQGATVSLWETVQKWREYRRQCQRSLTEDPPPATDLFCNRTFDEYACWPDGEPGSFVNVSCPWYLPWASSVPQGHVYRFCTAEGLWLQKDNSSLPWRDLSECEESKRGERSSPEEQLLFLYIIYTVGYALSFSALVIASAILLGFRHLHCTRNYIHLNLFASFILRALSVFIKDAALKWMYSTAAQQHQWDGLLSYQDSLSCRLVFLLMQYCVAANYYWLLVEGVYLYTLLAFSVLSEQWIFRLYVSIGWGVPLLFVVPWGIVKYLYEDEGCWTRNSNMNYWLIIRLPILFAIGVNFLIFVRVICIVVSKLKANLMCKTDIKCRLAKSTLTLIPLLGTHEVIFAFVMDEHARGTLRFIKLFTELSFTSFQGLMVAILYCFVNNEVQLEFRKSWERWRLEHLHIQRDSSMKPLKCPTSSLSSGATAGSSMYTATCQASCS
Sequence of human GLP-1R (P43220 24-463): as above

For `CC[C@H](C)[C@H](NC(=O)[C@H](CC(C)C)NC(=O)[C@H](Cc1ccc(O)cc1)NC(=O)[C@H](CCC(=O)O)NC(=O)[C@@H](NC(=O)[C@H](Cc1ccccc1)NC(=O)[C@H](C)NC(=O)C(C)(C)NC(=O)[C@H](CCC(N)=O)NC(=O)[C@H](C)NC(=O)[C@H](CCCCNC(=O)COCCOCCNC(=O)COCCOCCNC(=O)CC[C@H](NC(=O)CCCCCCCCCCCCCCCCCCC(=O)O)C(=O)O)NC(=O)[C@H](CCCCN)NC(=O)[C@H](CC(=O)O)NC(=O)[C@H](CC(C)C)NC(=O)[C@H](CC(C)C)NC(=O)[C@@H](NC(=O)[C@@H](CO)NC(=O)[C@H](Cc1ccc(O)cc1)NC(=O)[C@H](CC(=O)O)NC(=O)[C@H](CO)NC(=O)[C@@H](NC(=O)[C@H](Cc1ccccc1)NC(=O)[C@@H](NC(=O)CNC(=O)[C@H](CCC(=O)O)NC(=O)C(C)(C)NC(=O)[C@@H](N)Cc1ccc(O)cc1)[C@@H](C)O)[C@@H](C)O)[C@@H](C)CC)[C@@H](C)CC)C(=O)N[C@@H](CCC(=O)O)C(=O)NCC(=O)NCC(=O)N1CCC[C@H]1C(=O)N[C@@H](CO)C(=O)N[C@@H](CO)C(=O)NCC(=O)N[C@@H](C)C(=O)N1CCC[C@H]1C(=O)N1CCC[C@H]1C(=O)N1CCC[C@H]1C(=O)N[C@@H](CO)C(N)=O` [Example 81], the inhibitory constant (Ki) in assay [1] was found to be 344 nM; in assay [2] it was 0.198 nM; in assay [5], 2.88 nM. Moreover, the EC50 was 1.29 nM in assay [3] and 0.428 nM in assay [4].
As for `CC[C@@H](C)[C@@H](NC(=O)[C@H](CO)NC(=O)[C@H](Cc1ccc(O)cc1)NC(=O)[C@H](CC(=O)O)NC(=O)[C@H](CO)NC(=O)[C@@H](NC(=O)[C@H](Cc1ccccc1)NC(=O)[C@@H](NC(=O)CNC(=O)[C@H](CCC(=O)O)NC(=O)C(C)(C)NC(=O)[C@@H](N)Cc1ccc(O)cc1)[C@@H](C)O)[C@@H](C)O)C(=O)N[C@@H](CC(C)C)C(=O)N[C@@H](CC(C)C)C(=O)N[C@@H](CC(=O)O)C(=O)N[C@@H](CCCCN)C(=O)N[C@@H](CCCCNC(=O)COCCOCCNC(=O)COCCOCCNC(=O)CC[C@H](NC(=O)CCCCCCCCCCCCCCCCCCC(=O)O)C(=O)O)C(=O)N[C@@H](C)C(=O)N[C@@H](CCC(N)=O)C(=O)NC(C)(C)C(=O)N[C@@H](C)C(=O)N[C@@H](Cc1ccccc1)C(=O)N[C@H](C(=O)N[C@@H](CCC(=O)O)C(=O)N[C@@H](Cc1ccc(O)cc1)C(=O)N[C@@H](CC(C)C)C(=O)N[C@H](C(=O)N[C@@H](CCC(=O)O)C(=O)NCC(=O)NCC(=O)N1CCC[C@H]1C(=O)N[C@@H](CO)C(=O)N[C@@H](CO)C(=O)NCC(=O)N[C@@H](C)C(=O)N1CCC[C@H]1C(=O)N1CCC[C@H]1C(=O)N1CCC[C@H]1C(=O)N[C@@H](CO)C(N)=O)[C@@H](C)CC)[C@@H](C)CC` [Example 82], the Ki in assay [1] was more than 1060 nM; in assay [2], 14.9 nM; in assay [5], 6.82 nM. Further, the EC50 in assay [3] was determined as 26.1 nM; in assay [4], 24.3 nM.
`CC[C@H](C)[C@H](NC(=O)[C@H](Cc1ccccc1)NC(=O)[C@H](C)NC(=O)C(C)(C)NC(=O)[C@H](CCC(N)=O)NC(=O)[C@H](C)NC(=O)[C@H](CCCCNC(=O)COCCOCCNC(=O)COCCOCCNC(=O)CC[C@H](NC(=O)CCCCCCCCCCCCCCCCCCC(=O)O)C(=O)O)NC(=O)[C@H](CCCCN)NC(=O)[C@H](CC(=O)O)NC(=O)[C@H](CC(C)C)NC(=O)[C@H](CC(C)C)NC(=O)[C@@H](NC(=O)[C@H](CO)NC(=O)[C@H](Cc1ccc(O)cc1)NC(=O)[C@H](CC(=O)O)NC(=O)[C@H](CO)NC(=O)[C@@H](NC(=O)[C@H](Cc1ccccc1)NC(=O)[C@@H](NC(=O)CNC(=O)[C@H](CCC(=O)O)NC(=O)C(C)(C)NC(=O)[C@@H](N)Cc1ccc(O)cc1)[C@@H](C)O)[C@@H](C)O)[C@@H](C)CC)C(=O)N[C@@H](CCC(=O)O)C(=O)N[C@@H](Cc1ccc(O)cc1)C(=O)N[C@@H](CC(C)C)C(=O)N[C@H](C(=O)N[C@H](CCC(=O)O)C(=O)NCC(=O)NCC(=O)N1CCC[C@H]1C(=O)N[C@@H](CO)C(=O)N[C@@H](CO)C(=O)NCC(=O)N[C@@H](C)C(=O)N1CCC[C@H]1C(=O)N1CCC[C@H]1C(=O)N1CCC[C@H]1C(=O)N[C@@H](CO)C(N)=O)[C@@H](C)CC` [Example 83]: the Ki in assay [1] was determined as 320 nM; in assay [2], 0.142 nM; in assay [5] it was 7.1 nM. Besides, the results for the EC50 in assay [3] and in assay [4] were 0.387 nM and 0.182 nM, respectively.
Taken in the same sequence, the figures for `CC[C@H](C)[C@H](NC(=O)[C@H](CC(C)C)NC(=O)[C@H](Cc1ccc(O)cc1)NC(=O)[C@@H](CCC(=O)O)NC(=O)[C@@H](NC(=O)[C@H](Cc1ccccc1)NC(=O)[C@H](C)NC(=O)C(C)(C)NC(=O)[C@H](CCC(N)=O)NC(=O)[C@H](C)NC(=O)[C@H](CCCCNC(=O)COCCOCCNC(=O)COCCOCCNC(=O)CC[C@H](NC(=O)CCCCCCCCCCCCCCCCCCC(=O)O)C(=O)O)NC(=O)[C@H](CCCCN)NC(=O)[C@H](CC(=O)O)NC(=O)[C@H](CC(C)C)NC(=O)[C@H](CC(C)C)NC(=O)[C@@H](NC(=O)[C@H](CO)NC(=O)[C@H](Cc1ccc(O)cc1)NC(=O)[C@H](CC(=O)O)NC(=O)[C@H](CO)NC(=O)[C@@H](NC(=O)[C@H](Cc1ccccc1)NC(=O)[C@@H](NC(=O)CNC(=O)[C@H](CCC(=O)O)NC(=O)C(C)(C)NC(=O)[C@@H](N)Cc1ccc(O)cc1)[C@@H](C)O)[C@@H](C)O)[C@@H](C)CC)[C@@H](C)CC)C(=O)N[C@@H](CCC(=O)O)C(=O)NCC(=O)NCC(=O)N1CCC[C@H]1C(=O)N[C@@H](CO)C(=O)N[C@@H](CO)C(=O)NCC(=O)N[C@@H](C)C(=O)N1CCC[C@H]1C(=O)N1CCC[C@H]1C(=O)N1CCC[C@H]1C(=O)N[C@@H](CO)C(N)=O` [Example 84] were more than 1100 nM, 0.143 nM, 10.2 nM, 0.374 nM and 0.0915 nM.
Consider `CC[C@H](C)[C@H](NC(=O)[C@H](CC(C)C)NC(=O)[C@H](Cc1ccc(O)cc1)NC(=O)[C@H](CCC(=O)O)NC(=O)[C@@H](NC(=O)[C@H](Cc1ccccc1)NC(=O)[C@H](C)NC(=O)C(C)(C)NC(=O)[C@H](CCC(N)=O)NC(=O)[C@H](C)NC(=O)[C@H](CCCCNC(=O)COCCOCCNC(=O)COCCOCCNC(=O)CC[C@H](NC(=O)CCCCCCCCCCCCCCCCCCC(=O)O)C(=O)O)NC(=O)[C@H](CCCCN)NC(=O)[C@H](CC(=O)O)NC(=O)[C@H](CC(C)C)NC(=O)[C@H](CC(C)C)NC(=O)[C@@H](NC(=O)[C@H](CO)NC(=O)[C@H](C)NC(=O)[C@H](CC(=O)O)NC(=O)[C@H](CO)NC(=O)[C@@H](NC(=O)[C@H](Cc1ccccc1)NC(=O)[C@@H](NC(=O)CNC(=O)[C@H](CCC(=O)O)NC(=O)C(C)(C)NC(=O)[C@@H](N)Cc1ccc(O)cc1)[C@@H](C)O)[C@@H](C)O)[C@@H](C)CC)[C@@H](C)CC)C(=O)N[C@@H](CCC(=O)O)C(=O)NCC(=O)NCC(=O)N1CCC[C@H]1C(=O)N[C@@H](CO)C(=O)N[C@@H](CO)C(=O)NCC(=O)N[C@@H](C)C(=O)N1CCC[C@H]1C(=O)N1CCC[C@H]1C(=O)N1CCC[C@H]1C(=O)N[C@@H](CO)C(N)=O` [Example 85] (H-Y[Aib]EGTFTSDASILLDKK([AEEA-AEEA-γGlu-C20 diacid])AQ[Aib]AFIEYLIEGGPSSGAPPPS-NH2), for which the Ki in assay [1] was more than 894 nM; in assay [2], 0.621 nM; in assay [5], 1.87 nM. Moreover, the EC50 in assay [3] was determined as 0.0518 nM; in assay [4], 1.67 nM.
